#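 Following 48 hours of exposure in 96-well plates, responses at five concentrations were used to interpolate endpoints linearly. Here, GI50 denotes the concentration required for 50% inhibition of growth. At the TGI there is no net growth.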
# Experiments:
# Test in all cases: growth of human tumour cells (NCI), 48 h
# MDA-MB-435 = test system: MDA-MB-435
# OVCAR-5 ovarian = test system: OVCAR-5 ovarian
# U251 CNS = test system: U251 CNS
# HOP-62 NSCLC = test system: HOP-62 NSCLC
# SR leukemia = test system: SR leukemia
# PC-3 prostate = test system: PC-3 prostate
# NCI-H460 lung = test system: NCI-H460 lung
# SF-295 CNS = test system: SF-295 CNS
# HCT-116 colon = test system: HCT-116 colon
# ACHN renal = test system: ACHN renal
# SF-268 CNS = test system: SF-268 CNS
# M14 melanoma = test system: M14 melanoma
# MOLT-4 leukemia = test system: MOLT-4 leukemia
# MDA-MB-231 breast = test system: MDA-MB-231 breast
# RXF 393 renal = test system: RXF 393 renal
# SNB-19 CNS = test system: SNB-19 CNS
# KM12 colon = test system: KM12 colon
# A549 NSCLC = test system: A549 NSCLC
# A498 renal = test system: A498 renal
# OVCAR-8 ovarian = test system: OVCAR-8 ovarian
# UACC-257 melanoma = test system: UACC-257 melanoma
# DU-145 prostate = test system: DU-145 prostate
# OVCAR-3 ovarian = test system: OVCAR-3 ovarian
# T-47D breast = test system: T-47D breast
# NCI-H23 lung = test system: NCI-H23 lung
# SNB-75 CNS = test system: SNB-75 CNS
# SK-OV-3 ovarian = test system: SK-OV-3 ovarian
# NCI/ADR-RES ovarian = test system: NCI/ADR-RES ovarian
# UO-31 renal = test system: UO-31 renal
# MALME-3M melanoma = test system: MALME-3M melanoma
# NCI-H226 lung = test system: NCI-H226 lung
# SK-MEL-5 melanoma = test system: SK-MEL-5 melanoma
# HOP-92 NSCLC = test system: HOP-92 NSCLC
# SN12C renal = test system: SN12C renal
# RPMI-8226 leukemia = test system: RPMI-8226 leukemia
# K-562 leukemia = test system: K-562 leukemia
# TK-10 renal = test system: TK-10 renal
# COLO 205 colon = test system: COLO 205 colon
# CCRF-CEM leukemia = test system: CCRF-CEM leukemia
# SW-620 colon = test system: SW-620 colon
# HL-60(TB) leukemia = test system: HL-60(TB) leukemia
# EKVX NSCLC = test system: EKVX NSCLC
# HS 578T breast = test system: HS 578T breast
# HCT-15 colon = test system: HCT-15 colon
# SF-539 CNS = test system: SF-539 CNS
# CAKI-1 renal = test system: CAKI-1 renal
# SK-MEL-28 melanoma = test system: SK-MEL-28 melanoma
# HT29 colon = test system: HT29 colon
# MCF7 breast = test system: MCF7 breast
# UACC-62 melanoma = test system: UACC-62 melanoma
# LOX IMVI melanoma = test system: LOX IMVI melanoma
# NCI-H522 lung = test system: NCI-H522 lung
# 786-0 renal = test system: 786-0 renal
# OVCAR-4 ovarian = test system: OVCAR-4 ovarian
# HCC-2998 colon = test system: HCC-2998 colon
# IGROV1 ovarian = test system: IGROV1 ovarian
# BT-549 breast = test system: BT-549 breast
# SK-MEL-2 melanoma = test system: SK-MEL-2 melanoma
smiles,measurement,setting,value
CC(=O)O/N=C/c1c2ccccc2cc2ccccc12,TGI,MDA-MB-435,> 100 µM
same,TGI,OVCAR-5 ovarian,> 100 µM
same,TGI,U251 CNS,> 100 µM
same,TGI,HOP-62 NSCLC,> 100 µM
same,TGI,SR leukemia,> 100 µM
same,TGI,PC-3 prostate,> 100 µM
same,TGI,NCI-H460 lung,> 100 µM
same,TGI,SF-295 CNS,> 100 µM
same,TGI,HCT-116 colon,> 100 µM
same,TGI,ACHN renal,68.5 µM
same,TGI,SF-268 CNS,> 100 µM
same,TGI,M14 melanoma,> 100 µM
same,TGI,MOLT-4 leukemia,> 100 µM
same,TGI,MDA-MB-231 breast,> 100 µM
same,TGI,RXF 393 renal,86.2 µM
same,TGI,SNB-19 CNS,> 100 µM
same,TGI,KM12 colon,> 100 µM
same,TGI,A549 NSCLC,> 100 µM
same,TGI,A498 renal,> 100 µM
same,TGI,OVCAR-8 ovarian,50.3 µM
same,TGI,UACC-257 melanoma,> 100 µM
same,TGI,DU-145 prostate,> 100 µM
same,TGI,OVCAR-3 ovarian,> 100 µM
same,TGI,T-47D breast,> 100 µM
same,TGI,NCI-H23 lung,> 100 µM
same,TGI,SNB-75 CNS,51.5 µM
same,TGI,SK-OV-3 ovarian,69.6 µM
same,TGI,NCI/ADR-RES ovarian,> 100 µM
same,TGI,UO-31 renal,> 100 µM
same,TGI,MALME-3M melanoma,> 100 µM
same,TGI,NCI-H226 lung,> 100 µM
same,TGI,SK-MEL-5 melanoma,> 100 µM
same,TGI,HOP-92 NSCLC,> 100 µM
same,TGI,SN12C renal,> 100 µM
same,TGI,RPMI-8226 leukemia,> 100 µM
same,TGI,K-562 leukemia,> 100 µM
same,TGI,TK-10 renal,> 100 µM
same,TGI,COLO 205 colon,> 100 µM
same,TGI,CCRF-CEM leukemia,> 100 µM
same,TGI,SW-620 colon,> 100 µM
same,TGI,HL-60(TB) leukemia,> 100 µM
same,TGI,EKVX NSCLC,> 100 µM
same,TGI,HS 578T breast,> 100 µM
same,TGI,HCT-15 colon,> 100 µM
same,TGI,SF-539 CNS,> 100 µM
same,TGI,CAKI-1 renal,> 100 µM
same,TGI,SK-MEL-28 melanoma,> 100 µM
same,TGI,HT29 colon,> 100 µM
same,TGI,MCF7 breast,> 100 µM
same,TGI,UACC-62 melanoma,> 100 µM
same,TGI,LOX IMVI melanoma,> 100 µM
COc1cc2c(cc1O)CCN[C@]21CS[C@@H]2c3c(OC(C)=O)c(C)c4c(c3[C@H](COC1=O)N1[C@@H]2[C@H]2c3c(cc(C)c(OC)c3O)C[C@@H]([C@@H]1O)N2C)OCO4,TGI,OVCAR-5 ovarian,1.19 µM
same,TGI,U251 CNS,1.02 µM
same,TGI,HOP-62 NSCLC,0.252 µM
same,TGI,SR leukemia,10.5 µM
same,GI50,PC-3 prostate,0.00279 µM
same,TGI,PC-3 prostate,0.119 µM
same,TGI,NCI-H522 lung,0.00746 µM
same,TGI,786-0 renal,0.948 µM
same,TGI,NCI-H460 lung,0.808 µM
same,TGI,SF-295 CNS,1.01 µM
same,TGI,HCT-116 colon,2.94 µM
same,TGI,SF-268 CNS,0.0486 µM
same,TGI,M14 melanoma,0.00383 µM
same,TGI,MOLT-4 leukemia,8.76 µM
same,TGI,MDA-MB-231 breast,0.0199 µM
same,TGI,RXF 393 renal,0.00401 µM
same,TGI,SNB-19 CNS,1.39 µM
same,GI50,A549 NSCLC,0.00319 µM
same,TGI,A549 NSCLC,2.83 µM
same,TGI,OVCAR-4 ovarian,0.0718 µM
same,TGI,OVCAR-8 ovarian,4.83 µM
same,GI50,HCC-2998 colon,0.00352 µM
same,TGI,HCC-2998 colon,0.00652 µM
same,TGI,UACC-257 melanoma,0.00557 µM
same,TGI,DU-145 prostate,1 µM
same,GI50,IGROV1 ovarian,0.00257 µM
same,TGI,IGROV1 ovarian,1.96 µM
same,TGI,OVCAR-3 ovarian,0.0057 µM
same,TGI,T-47D breast,3.02 µM
same,TGI,NCI-H23 lung,0.0057 µM
same,GI50,SK-OV-3 ovarian,0.00309 µM
same,TGI,SK-OV-3 ovarian,3.99 µM
same,GI50,NCI/ADR-RES ovarian,0.00591 µM
same,TGI,NCI/ADR-RES ovarian,2.61 µM
same,GI50,NCI-H226 lung,0.00313 µM
same,TGI,NCI-H226 lung,0.00582 µM
same,TGI,SK-MEL-5 melanoma,0.00433 µM
same,GI50,HOP-92 NSCLC,0.00273 µM
same,TGI,HOP-92 NSCLC,0.0518 µM
same,TGI,SN12C renal,3.9 µM
same,TGI,BT-549 breast,0.00612 µM
same,TGI,RPMI-8226 leukemia,0.00529 µM
same,TGI,K-562 leukemia,7.98 µM
same,GI50,TK-10 renal,0.00331 µM
same,TGI,TK-10 renal,3.54 µM
same,TGI,CCRF-CEM leukemia,3.11 µM
same,TGI,SW-620 colon,0.13 µM
same,TGI,HL-60(TB) leukemia,0.0114 µM
same,GI50,EKVX NSCLC,0.00467 µM
same,TGI,EKVX NSCLC,0.0459 µM
same,GI50,HCT-15 colon,0.00379 µM
same,TGI,HCT-15 colon,0.361 µM
same,TGI,CAKI-1 renal,1.36 µM
same,GI50,SK-MEL-2 melanoma,0.0031 µM
same,TGI,SK-MEL-2 melanoma,0.00511 µM
same,TGI,HT29 colon,2.52 µM
same,TGI,MCF7 breast,0.979 µM
same,TGI,UACC-62 melanoma,0.00403 µM
same,TGI,LOX IMVI melanoma,0.262 µM
